“Also recorded” adds a separate entry of the source.
What was measured:
human ATP5B [1] = target: T1, human ATP5B (Homo sapiens, UniProt P06576); assay: GST-DHFR / MTX-phenformin GST pull-down of 35S-labeled ATP5B; assay type: binding; conditions: 10 μM MTX-phenformin fixed to GST-DHFR; wild type ATP5B
T1 construct: an attempt was made to amplify complete length cDNA of human ATP5B; made in house; host or cells: cell-free: TNT Quick Coupled Transcription/Translation System (Promega) from pcDNA-ATP5B; GST-DHFR from E. coli BL21
Description: Promega) and 0.74 MBq of a radioisotope (redivue Pro-mix L-[35S]; Amersham) and in accordance with the protocols attached thereto. A 15 μl portion of this human ATP5B protein preparation liquid and 1 μg for each of the GST protein or GST-DHFR, purified on the glutathione Sepharose beads, were mixed and shaken at 4° C. for 1 hour after adding 0.3 ml of buffer A thereto. Thereafter, the protein binding to the GST protein or GST-DHFR on beads was co-precipitated by centrifugation. After repeating this operation 4 times, proteins in the precipitate were separated by SDS polyacrylamide gel electrophoresis in accordance with a conventionally known method, and the protein bound to the probe was detected by an autoradiography.

human ATP5B [2] = target: T1, human ATP5B; assay: competitive inhibition of binding of ATP5B and MTX-phenformin; conditions: MTX-phenformin 10 μM; free phenformin 10 μM; compounds A and B 'addition of 10'
AMPK = AMPK activation ability detection in HeLa S3 cell (anti-phospho AMPK western blotting); assay type: cell-based, human; conditions: phenformin 1 mM, 1 hr
Description: This expression plasmid pcDNA-LKB1 and the pcDNA-ATP5B prepared in the aforementioned Example 5(1) or an empty vector (pcDNA3.1) (Invitrogen) were transferred into HeLa S3 cell. The HeLa S3 cell (ATCC) was cultured in a 6 well culture plate (35 mm in well diameter) until it reached a state of 70% confluent, by adding 2 ml of a minimum essential medium DMEM (Gibco) containing 10% fetal bovine serum (Sigma) to each well of the culture plate. The medium was substituted by 1 ml per well of a serum-free medium OPTI MEM I (Invitrogen), and 3.0 μg/well of each of the empty vector (pcDNA3.1), pcDNA-LKB1 and pcDNA-ATP5B was transiently transferred using Lipofect amine 2000 (Invitrogen). After 12 hours of the culturing, this was substituted by 2 ml/well of DMEM containing 10% of fetal bovine serum from which low molecular substances had been removed by a charcoal treatment, and further cultured for 36 hours. This was further cultured for 1 hour (1 hr) under a condition of adding phenformin (Sigma) to a final concentration of 1 mM or the solvent (DMSO) alone. The medium was discarded, the cells were washed with a phosphate buffer (to be referred to as PBS hereinafter, and then the cells were lysed by adding 0.15 ml of the aforementioned buffer A (however, the NaCl concentration was 150 mM, and various phosphatase inhibitors; 2 mM Na3VO4, 10 mM NaF, 25 mM β-glycerophosphate, 0.2 mM Na2MoO4, 20 nM okadaic acid, were added). The activity of AMPK in the cells was detected at the level of phosphorylation of molecules by a conventionally known SDS electrophoresis and a western blotting which uses an anti-phosphorylation AMPK antibody (Phospho-AMPK-α(Thr172) Antibody, Daiichi Pure Chemicals). In this case, in order to confirm that there is no difference in the amount of protein of AMPKα (an AMPK subunit which undergoes phosphorylation) among samples, a western blotting which uses an anti-AMPKα antibody (Daiichi Pure Chemicals) was simultaneously carried out. […] However, in the cell in which human ATP5B was expressed by transferring pcDNA-ATP5B, activation of AMPK by phenformin treatment was not found.

[3] = target: T2, Glu 175 Val mutation type ATP5B (Homo sapiens, UniProt P06576, E175V); assay: GST-DHFR / MTX-phenformin pull-down, Glu 175 Val mutation type ATP5B; assay type: binding; conditions: pull-down assay as Example 5(4)
T2 construct: a complete length cDNA of about 1600 base pairs coding for a Glu 175 Val mutation type ATP5B; made in house
Description: Using the aforementioned expression plasmid pcDNA-ATP5B as the template and using respective sets of primers of the nucleotide sequences represented by SEQ ID NO:87 and SEQ ID NO:81, and SEQ ID NO:80 and SEQ ID NO:88, two DNA fragments of about 530 base pairs of 5′-side and about 1080 base pairs of 3′-side of cDNA having a mutation in which the 175th position of amino acid, Glu, of human ATP5B was replaced by Val were amplified by PCR. All of the PCR reaction, cloning stem and determination of nucleotide sequence were the same as the methods shown in Example 5(1). Using an equivalent mixture of the thus obtained two PCR products as the template, PCR was carried out using the primers represented by SEQ ID NO:80 and SEQ ID NO:81 this time, thereby obtaining a complete length cDNA of about 1600 base pairs coding for a Glu 175 Val mutation type ATP5B. The thus obtained cDNA fragment was cloned into an expression vector (pcDNA3.1/V5-His-TOPO; Invitrogen), and then the nucleotide sequence inserted into the vector was identified using the synthetic primer represented by SEQ ID NO:90 to confirm that the Glu 175 Val mutation was formed in ATP5B. The thus obtained expression plasmid is referred to as pcDNA-ATP5B(E175V) hereinafter. […]

ATP5B = target: T3, ATP5B (Rattus norvegicus, UniProt P10719); assay: GST-HSPA4 pull-down from L 6 cell extract, silver staining and mass spectrum identification; assay type: binding; conditions: phenformin 50 nM added vs no addition
T3 construct: a rat skeletal muscle-derived cell, L 6 cell (ATCC); endogenous in cells; host or cells: L6 (rat skeletal muscle)
Description: Using the aforementioned method shown in Example 2(2), attempt was made to screen the target protein of biguanide whose direct target protein has been unclear in spite of its significant drug effect as an agent for treating diabetes. Firstly, a rat skeletal muscle-derived cell, L 6 cell (ATCC), was suspended in a minimum essential medium (αMEM, Invitrogen) containing 10% fetal calf serum (FCS) and cultured on a collagen-coated plate of 15 cm in diameter (Asahi Techno Glass) until reaching the confluent state. The resulting cells were washed twice with 15 ml of ice-cooled phosphate buffer (PBS) and then lysed by adding 2.0 ml of the aforementioned buffer A, and the cell extract was collected using a scraper. […] After 1 hour of shaking at 4° C., the protein binding to the GST-HSPA4 on beads was co-precipitated by centrifugation. In this connection, in order to prevent drop out of the molecular chaperone protein from the beads, the molecular chaperone protein and beads were used by chemically crosslinking them in advance by a conventionally known method. […] As a result, a large protein band of about 60 kDa, in which its amount to bind to the molecular chaperone protein is reduced at the time of adding phenformin in comparison with the case of no addition, was detected. […]

[4] = target: T4, Asp 295 Val mutation type ATP5B (Homo sapiens, UniProt P06576, D295V); assay: GST-DHFR / MTX-phenformin pull-down, Asp 295 Val mutation type ATP5B; assay type: binding; conditions: pull-down assay as Example 5(4)
T4 construct: a complete length cDNA coding for an Asp 295 Val mutation type ATP5B was obtained; made in house

influence on binding of ATP5B and MTX-phenformin (human ATP5B [2]): obstructed
amount of about 60 kDa protein band (ATP5B) binding to the molecular chaperone protein (ATP5B): reduced
Structure (SMILES): [H]/N=C(/N)N/C(=N/[H])NCCc1ccccc1 [phenformin]
binding with human ATP5B (band of about 60 kDa, autoradiography) (human ATP5B [1]): directly binds; also recorded: able to confirm binding
phosphorylation level (activation) of AMPK (AMPK; HeLa S3 cell without ATP5B over-expression (empty vector- or pcDNA-LKB1-transferred), concentration of compounds A and B not given): significantly accelerated and activated
activation of AMPK in cell over-expressing human ATP5B (AMPK; pcDNA-ATP5B-transferred HeLa S3 cell, metformin 10 mM): not found; also recorded: disappearance
binding with Glu 175 Val mutation type ATP5B [3]: not able to confirm the binding; also recorded: disappearance
binding with Asp 295 Val mutation type ATP5B [4]: not able to confirm the binding; also recorded: disappearance
